Data on 2 compounds can be found in US12358913B2, “Crystal of diarylthiohydantoin compound” (CHIA TAI TIANQING PHARMACEUTICAL GROUP CO., LTD., priority 2019, dated 2025).

The test system of data set [1] is human prostate cancer LNCaP-FGC cells. As to the kind of experiment: In vivo pharmacodynamic study on subcutaneous xenograft tumor model of human prostate cancer LNCaP-FGC cells. On the set-up: species or system CB-17 SCID mouse. The following applies: for Relative tumor proliferation rate T/C / TGI: after 21 days of administration. As for the experimental part:
Human prostate cancer LNCaP-FGC cells (ATCC, Manassas, VA) were cultured in vitro, in a monolayer way, in an RPMI1640 medium containing 10% fetal bovine serum at 37° C. and 5% CO2. Routine digestion treatment with pancreatin-EDTA was performed twice a week for passage. When the saturation degree of the cells is 80-90%, the cells were collected, counted and inoculated.
0.2 mL (10×10^6) of LNCaP-FGC cells (10×10^6+Matrigel, 1:1) were inoculated subcutaneously into the right back of each CB-17 SCID mouse. The mice were divided into groups for administration when the mean tumor volume reached 100-150 mm^3.
Tumor diameters were measured twice weekly using a vernier caliper. The calculation formula for tumor volume was: V=0.5a×b^2, with a and b representing the long and short diameters of the tumor, respectively. The anti-tumor therapeutic effect of the compound was evaluated by TGI (%) or relative tumor proliferation rate T/C (%). TGI (%)=[(1−(average tumor volume of a treatment group at the end of administration−average tumor volume of the treatment group at the start of administration))/(average tumor volume of a vehicle control group at the end of treatment-average tumor volume of the vehicle control group at the start of treatment)]×100%. The calculation formula for relative tumor proliferation rate T/C (%) was as follows: T/C %=TRTV/CRTV×100% (TRTV: RTV of treatment group; CRTV: RTV of negative control group). Relative tumor volume (RTV) was calculated based on the results of tumor measurement. The calculation formula was: RTV=Vt/V0, wherein V0 was the average tumor volume measured at the time of grouping and administration (i.e., d0), Vt was the average tumor volume at a certain measurement, and the data of TRTV and CRTV were obtained on the same day.
Statistical analysis included mean and standard error of mean (SEM) of tumor volume at each time point for each group. […] Comparison between two groups was analyzed using T-test, comparison among three or more groups was analyzed using one-way ANOVA. […] If there was […] in F values, Dunnet (2-sided) method was used for analysis. All data analysis was performed with SPSS 17.0. “P<0.05” was defined as a significant difference.
A general note: In xenograft studies the graft and the host belong to different species.

Data set [2] is described as follows: Tissue distribution test (plasma and brain) in male CD-1 mice. The class given is in vivo. Particulars: intragastric administration, 2 mg/kg, 4 h. As for the experimental part: Taking male CD-1 mice as test animals, the drug concentrations in the plasma and brain of the mice after intragastric administration of the compound of formula I were determined by an LC/MS/MS method.
2.2 Test Animals: 2 Healthy Adult Male CD-1 Mice. Animals were Purchased from Shanghai Sippe-Bk Lab Animal Co., Ltd.
An appropriate amount of sample was added into 0.5% CMC/0.2% Tween aqueous solution, and the mixture was stirred and ultrasonicated to a suspension state (0.4 mg/mL).
Two male CD-1 mice, after fasting overnight, were subjected to intragastric administration at a volume of 5 mL/kg and a dosage of 2 mg/kg.
Male CD-1 mice, after intragastric administration of the compound of formula I, were subjected to 100 μL of blood collection by cardiac puncture at 4 h, and the blood was placed in tubes containing 2 μL of EDTA-K2 and centrifuged at 3000 g for 15 min to separate out 30 μL of plasma, which was stored at −60° C. Meanwhile, brain tissues were collected, washed, homogenized with 9-fold 15 mM PBS/MeOH (v: v, 2:1), and stored at −60° C. The animals were allowed to eat 4 h after administration.
LC/MS/MS method was used to determine the content of test compound in the plasma and brain of mice after intragastric administration. The linear range of the method was 2.00-6000 nmol/L; plasma samples were analyzed after treatment with acetonitrile to precipitate proteins.

Data set [3] is described as follows: Pharmacokinetic test in male CD-1 mice, plasma by LC/MS/MS. The class given is in vivo. The following applies: mouse, po, intragastric administration, 2 mg/kg. As for the experimental part: Taking male CD-1 mice as test animals, the drug concentrations in the plasma of the mice at different time points after intravenous and intragastric administration of the compound of formula I were determined by an LC/MS/MS method. This example aims to investigate the pharmacokinetic performance of the compound of formula I in mice and to evaluate the pharmacokinetic characteristics.
2.2 Test Animals: 4 Healthy Adult Male CD-1 Mice, which were Divided into 2 Groups (2 Mice in Each Group) According to the Body Weight. Animals were Purchased from Shanghai Sippe-Bk Lab Animal Co., Ltd., and Animal Production License Number was SCXK (Shanghai) 2013-0016. 2.3 Drug Preparation
An appropriate amount of sample was weighed, and sequentially added with an appropriate amount of DMSO, PEG400 and water according to the volume ratio of 10:40:50, and the mixture was stirred and ultrasonicated to a clear state (0.4 mg/mL) for intravenous administration. […]
LC/MS/MS method was used to determine the content of the test compound in the plasma of mice after intravenous and intragastric administration. The linear range of the method was 2.00-6000 nmol/L; plasma samples were analyzed after treatment with acetonitrile to precipitate proteins.

The nature of data set [4]: Hygroscopicity by dynamic vapor sorption (DVS). The class given is physicochemical. Particulars: 25±1° C. and 80±2% RH. As for the experimental part:
Instrument model: SMS DVS Advantage
Test conditions: a sample (10-15 mg) of the crystal of the compound of formula I prepared in Example 2 was placed in a DVS sample tray for testing.
The detailed DVS parameters were as follows:
Balancing: dm/dt=0.01%/min (shortest: 10 min, longest: 180 min)
Drying: drying at 0% RH for 120 min
RH (%) test gradient: 10%
Range of RH (%) test gradient: 0%-90%-0%
Note: ΔW % represents the moisture gain of the test compound at 25±1° C. and 80±2% RH.

Data set [5] is described as follows: Solid stability of the crystal, purity by HPLC. The class given is physicochemical. An excerpt: References were made to the requirements in the “Guidelines for the Stability Test of APIs and Preparations” (Appendix XIX C of the Volume Two of the Chinese Pharmacopoeia, 2010 Edition) for the conditions and the method for the stability test of the crystal, and the stability of the crystalline solid under conditions of different influence factors was studied with the crystal prepared in Example 2 as a test sample.
High performance liquid chromatography (HPLC): column: Waters xbridge shiled RP18 (150 mm*4.6 mm, 3.5 μm); PN: 186003045; wavelength: 228 nm; mobile phase A: pH 4.5, 5 mmol/L sodium acetate buffer solution (pH adjusted with phosphoric acid); mobile phase B: acetonitrile; elution mode: gradient elution.

Where “and” joins values, the source holds several entries; their conditions need not be identical. Equal values may be shown once.

Consider `CCc1cc(=O)n2cc(N3C(=S)N(c4ccc(C#N)c(Cl)c4)C(=O)C3(C)C)cc(F)c2n1` [Compound of formula I, 2-chloro-4-(3-(2-ethyl-9-fluoro-4-oxo-4H-pyrido[1,2-a]pyrimidin-7-yl)-4,4-dimethyl-5-oxo-2-thioimidazolidin-1-yl)benzonitrile], for which, in data set [1] (10 mg/kg PO QD), the “Relative tumor proliferation rate T/C” value was found to be 43.93% and the TGI (as a rule, the reduction of tumour growth relative to the control group) is 62.75%. In data set [1] (10 mg/kg and 20 mg/kg PO QD × 21 days), the “Tolerance of the animals to the test compound” value is reported as “good tolerance”. Besides, in data set [1] (20 mg/kg PO QD), the “Relative tumor proliferation rate T/C” value is given as 32.37% and the TGI is reported as 76.16%. Besides, in data set [2], the Brain-to-plasma concentration ratio was determined as 0.0322, the Concentration in brain is 265 nmol/kg and the Concentration in plasma was 8.26 µM. Moreover, the bioavailability (commonly the share of a dose that reaches the circulation, judged against a reference dose that is usually intravenous) in data set [3] is 68.1%.

For the compound `CCc1cc(=O)n2cc(N3C(=S)N(c4ccc(C#N)c(Cl)c4)C(=O)C3(C)C)cc(F)c2n1` [crystal of the compound of formula I, 2-chloro-4-(3-(2-ethyl-9-fluoro-4-oxo-4H-pyrido[1,2-a]pyrimidin-7-yl)-4,4-dimethyl-5-oxo-2-thioimidazolidin-1-yl)benzonitrile], the “ΔW % (moisture gain)” value in data set [4] stood at 1.018%. Besides, the “Purity of the crystal (stability)” value in data set [5] (75% RH, 40° C., 1 month) is 99.17%; in data set [5] (75% RH, 40° C., 2 months), 99.14%; in data set [5] (75% RH, 40° C., 3 months) it was 99.16%; in data set [5] (75% RH, 40° C., 10 days) it was 99.15%; in data set [5] (75% RH, 60° C., 1 day), 99.14%; in data set [5] (75% RH, 60° C., 10 days), 99.16%. Besides, the “Purity of the crystal (stability)” value in data set [5] (92.5% RH, room temperature, 10 days) is 99.18% and 99.14%; in data set [5] (Initial test sample), 99.17%; in data set [5] (wrapped with tin foil paper, exposed to visible light of 1200000 Lux and UV of 200 W at room temperature) it was 99.13%.
